US11234982B2, “Methods for treating ocular surface pain” (NOVARTIS AG, priority 2019, dated 2022)
Read-outs that look alike come from different tables or passages of the source.

Columns and labels:
Type in all cases: in vivo, human
[1] = test system: patients undergoing photorefractive keratectomy (PRK) surgery; experiment: PRK study: oral rescue medication (ORM) use; conditions: for Number of patients who did not use oral rescue medication: 2.5%; for Number of patients who did not use oral rescue medication / Amount of oral rescue medication (Number of pills), Mean (SD) / Amount of oral rescue medication (Number of pills), Range / Amount of oral rescue medication (mg/kg of body weight), Range / Amount of oral rescue medication (mg/kg of body weight), Mean (SD): N = 40; for Amount of oral rescue medication (mg/kg of body weight), Mean (SD): tablet counted as 330 mg
Method: (§1) The study was a proof of concept, double-masked, randomized, vehicle-controlled study of compound I administered as eye drops in addition to standard of care treatment in patients after PRK surgery. PRK surgery was performed as an outpatient procedure under topical anesthesia with removal of the corneal epithelium to expose the stroma for the laser ablation. Compound I dosing was as single eye drop of 2.5% (25 mg/ml, 0.925 mg/drop), administered four times daily (every six hours) in one eye from immediate post-op (time 0) to last dose at 72 hours.
Rescue medication consisted of oral analgesic (acetaminophen 300 mg+codeine 30 mg) as needed up to a total of 10 tabs/day or 1-2 tabs every 4 hours.
Rescue oral analgesics: It is not ethical to refuse pain control medication to patients postoperatively as part of a clinical trial. […] Because the use of oral rescue medication may be a potential confounder of the pain VAS evaluation, three approaches were used when analyzing pain VAS scores to account for the influence of pain meds (assuming 4 hours of rescue medication effect): (1) any recorded VAS score within 4 hours after use of rescue medication was considered missing; (2) all the recorded VAS scores was used; and (3) any recorded VAS scores within 4 hours after rescue medication use was imputed by the record taken prior to the rescue medication.

[2] = PRK study: plasma pharmacokinetics of compound I; conditions: for Tmax: read-out: Tmax, Min, Max
Method: Pharmacokinetic (PK) samples were collected at the time points defined in the visit schedule supra, with PK blood collection windows shown in Table 9.
All blood samples (3 mL) were taken from the arm by either direct venipuncture or an indwelling catheter inserted in a forearm vein. After each tube of blood was drawn, it was immediately inverted gently 8-10 times to ensure the mixing of tube contents with anticoagulant (3 mL K2 EDTA). Prolonged sample contact with the rubber stopper was avoided and the tubes were placed upright in a test tube rack surrounded by wet ice until centrifugation.
Within 30 minutes, the sample was centrifuged at about 5° C. for 10 minutes at approximately 2000 G (or the sample was placed on ice and centrifuged at room temperature). Immediately after centrifugation, the whole supernatant (approx. 1.5 mL) was transferred in the first 1.8 mL NUNC 2D barcoded cryovial. After mixing the plasma thoroughly, half of the plasma was transferred from the first cryovial to the second cryovial and the caps were secured. Appropriate PK cryolabels were attached to each cryovial and the labels were secured with clear tape. The cryovials were frozen immediately over dry ice then, kept frozen at ≤−20° C. until shipment to the central lab. The vials were shipped in biweekly batches.
Compound I was quantified in plasma using a validated LC-MS/MS method; the lower limit of quantification (LLOQ) was 0.05 ng/mL. Concentrations were expressed in ng per mL units. When feasible, bandage contact lenses (BCL) exposed to study drug were collected and analyzed for residual drug exposure after treatment (LLOQ: 5.00 ng/mL in 0.55 mL of extraction fluid, or 2.75 ng/BCL). Concentrations below the LLOQ were reported as “zero” and missing data were labeled as such.
The following PK parameters were determined as relevant using the actual recorded sampling times and non-compartmental method with Phoenix™ WinNonlin® (Version 6.4): Cmax, Tmax, AUClast (calculated), Clast and Tlast from the plasma concentration-time data. Pre-dose concentrations were determined by inspection at nominal 0, 24 and 72 hours. The linear trapezoidal rule was used for AUClast calculation. No PK parameters were calculated from the bandage contact lenses compound I concentration data.

[3] = test system: patients undergoing photorefractive keratectomy (PRK) surgery; experiment: PRK study: Ocular Pain Assessment Survey (OPAS)
Method: as §1
The OPAS is a validated instrument for quantifying and monitoring corneal and ocular surface pain and quality of life, developed in response to an identified need from a National Eye Institute Workshop in 2010. See Qazi et al., Ophthalmology July 123(7):1458-1468 (2016). The rating scale of the overall pain severity in the OPAS from Qazi et al. rated from 0 (no pain) to 10 (severe pain) or for frequency of symptoms from 0% (never) to 100% (all the time), as per the survey. The patients were asked to fill out the OPAS survey/questionnaire at Day 2, Day 4 (at the end of treatment period with study drug) and Day 8. Statistical analysis of OPAS results was not performed.

[4] = across 4 days of repeated QID dosing
[5] = plasma, Day 1 (first dose), 2.5% topical ocular
[6] = plasma, Day 1 (first dose), 2.5% topical ocular, N 34
[7] = plasma, Day 4 (13th dose), 2.5% four times daily

CC(C)c1nc2cc(O)ccc2c(=O)n1-c1ccc(C#N)cc1 [Compound I, 4-(7-hydroxy-2-isopropyl-4-oxo-4H-quinazolin-3-yl)-benzonitrile]
Amount of ORM (Number of pills), % Change (Compound I-Vehicle)/Vehicle ([1]; 0-6 hours post-operatively): −25%
Amount of ORM (mg/kg of body weight), % Change (Compound I-Vehicle)/Vehicle ([1]; 0-6 hours post-operatively): −25%
Number of patients who did not use oral rescue medication ([1]; 0-6 hours post-operatively): 23 (57.5%) n (%)
Amount of oral rescue medication (Number of pills), Mean (SD) ([1]; 0-6 hours post-operatively): 0.75 (1.032) Number of pills
Amount of oral rescue medication (Number of pills), Range ([1]; 0-6 hours post-operatively): 0.0-4.0 Number of pills
Amount of oral rescue medication (mg/kg of body weight), Range ([1]; 0-6 hours post-operatively): 0.0-19.2 mg/kg of body weight
Amount of oral rescue medication (mg/kg of body weight), Mean (SD) ([1]; 0-6 hours post-operatively): 3.32 (4.684) mg/kg of body weight
Number of patients who did not use ORM, compound I-treated eye compared to Vehicle-treated eye ([1]; 0-6 hours, 0-12 hours and 0-24 hours post-operatively): higher
Amount of ORM (Number of pills), % Change (Compound I-Vehicle)/Vehicle ([1]; 0-12 hours post-operatively): −15%
Amount of ORM (mg/kg of body weight), % Change (Compound I-Vehicle)/Vehicle ([1]; 0-12 hours post-operatively): −17%
Number of patients who did not use oral rescue medication ([1]; 0-12 hours post-operatively): 19 (47.5%) n (%)
Amount of oral rescue medication (Number of pills), Mean (SD) ([1]; 0-12 hours post-operatively): 1.40 (1.780) Number of pills
Amount of oral rescue medication (Number of pills), Range ([1]; 0-12 hours post-operatively): 0.0-6.0 Number of pills
Amount of oral rescue medication (mg/kg of body weight), Range ([1]; 0-12 hours post-operatively): 0.0-28.7 mg/kg of body weight
Amount of oral rescue medication (mg/kg of body weight), Mean (SD) ([1]; 0-12 hours post-operatively): 6.10 (8.062) mg/kg of body weight
Amount of ORM (Number of pills), % Change (Compound I-Vehicle)/Vehicle ([1]; 0-24 hours post-operatively): −16%
Amount of ORM (mg/kg of body weight), % Change (Compound I-Vehicle)/Vehicle ([1]; 0-24 hours post-operatively): −18%
Number of patients who did not use oral rescue medication ([1]; 0-24 hours post-operatively): 16 (40.0%) n (%)
Amount of oral rescue medication (Number of pills), Mean (SD) ([1]; 0-24 hours post-operatively): 2.35 (2.751) Number of pills
Amount of oral rescue medication (Number of pills), Range ([1]; 0-24 hours post-operatively): 0.0-10.0 Number of pills
Amount of oral rescue medication (mg/kg of body weight), Range ([1]; 0-24 hours post-operatively): 0.0-47.9 mg/kg of body weight
Amount of oral rescue medication (mg/kg of body weight), Mean (SD) ([1]; 0-24 hours post-operatively): 10.17 (12.335) mg/kg of body weight
Number of patients who did not use oral rescue medication ([1]; 0-2 days post-operatively): 11 (27.5%) n (%)
Amount of ORM (Number of pills), % Change (Compound I-Vehicle)/Vehicle ([1]; 0-48 hours post-operatively): −13%
Amount of ORM (mg/kg of body weight), % Change (Compound I-Vehicle)/Vehicle ([1]; 0-48 hours post-operatively): −14%
Amount of oral rescue medication (Number of pills), Mean (SD) ([1]; 0-48 hours post-operatively): 4.05 (4.466) Number of pills
Amount of oral rescue medication (Number of pills), Range ([1]; 0-48 hours post-operatively): 0.0-16.0 Number of pills
Amount of oral rescue medication (mg/kg of body weight), Range ([1]; 0-48 hours post-operatively): 0.0-76.6 mg/kg of body weight
Amount of oral rescue medication (mg/kg of body weight), Mean (SD) ([1]; 0-48 hours post-operatively): 17.59 (19.850) mg/kg of body weight
Number of patients who did not use oral rescue medication ([1]; 0-3 days post-operatively): 11 (27.5%) n (%)
Amount of ORM (Number of pills), % Change (Compound I-Vehicle)/Vehicle ([1]; 0-72 hours post-operatively): −14%
Amount of ORM (mg/kg of body weight), % Change (Compound I-Vehicle)/Vehicle ([1]; 0-72 hours post-operatively): −15%
Amount of oral rescue medication (Number of pills), Mean (SD) ([1]; 0-72 hours post-operatively): 4.33 (4.896) Number of pills
Amount of oral rescue medication (Number of pills), Range ([1]; 0-72 hours post-operatively): 0.0-21.0 Number of pills
Amount of oral rescue medication (mg/kg of body weight), Range ([1]; 0-72 hours post-operatively): 0.0-87.4 mg/kg of body weight
Amount of oral rescue medication (mg/kg of body weight), Mean (SD) ([1]; 0-72 hours post-operatively): 18.70 (21.509) mg/kg of body weight
Amount of ORM (mg/kg of body weight) during compound I vs. Vehicle treatment ([1]; every time interval): less
ORM taken during compound I vs. Vehicle treatment (number of pills) ([1]; every time interval during the study): less ORM taken
Mean AUClast increase over the 4 days (Day 4 vs Day 1) ([2]; 2.5% 4 times daily): 6.9 fold
Mean Cmax after 13th dose on Day 4 relative to first dose on Day 1 ([2]; 2.5% 4 times daily): 5.3 fold
AUClast, range [2, 4]: 0.261 to 14.5 ng·h/mL
Observed Cmax, range [2, 4]: 0.195 to 7.56 ng/mL
Median plasma Tmax ([2]; after either single (first dose) or repeated 4 times daily topical ocular administration): approximately 0.5 hours
Cmax ([2]; human, plasma, topical, 2.5 % (four times daily), across 4 days of repeated QID dosing, read-out: Observed Cmax, range): 0.195 to 7.56 ng/mL
Tmax ([2]; human, topical or ocular, plasma, Day 1 (first dose), 2.5% topical ocular): 10 to 120 min
Tmax ([2]; human, topical, plasma, Day 4 (13th dose), 2.5% four times daily): 0 to 125 min
AUClast, Median [2, 5]: 0.569 ng·h/mL
Cmax, Median [2, 5]: 0.375 ng/mL
Tmax, Median [2, 5]: 27.5 min
AUClast, Mean (SD) [2, 6]: 0.638 ng·h/mL
Cmax, Mean (SD) [2, 6]: 0.454 ng/mL
AUClast, Median [2, 7]: 3.42 ng·h/mL
Cmax, Median [2, 7]: 2.07 ng/mL
Tmax, Median [2, 7]: 28 min
AUClast, Mean (SD) ([2]; plasma, Day 4 (13th dose), 2.5% four times daily, N 31): 4.38 ng·h/mL
Cmax, Mean (SD) ([2]; plasma, Day 4 (13th dose), 2.5% four times daily, N 33): 2.40 ng/mL
Trough mean plasma concentration (end of 6-hour dose interval) ([2]; prior to the 5th dose on Day 2 (24 hr post 1st dose)): 1.25 ng/mL
Trough mean plasma concentration (end of 6-hour dose interval) ([2]; prior to the 13th dose on Day 4 (72 hr post 1st dose)): 1.99 ng/mL
OPAS questions 4, 5, 6: eye pain intensity during the previous 24 hours (most painful, least painful, average) ([3]; Day 2, compared to Vehicle, no statistical analysis): all 3 answers numerically favored compound I
OPAS questions 22-25: how often eye pain associated with redness, burning, sensitivity to light, tearing ([3]; compared to Vehicle, no statistical analysis): all answers favored compound I
OPAS: pain control and quality of life, compound I vs. Vehicle treatment period ([3]; in vivo): better pain control and quality of life
